Experimental data as given in PMC4217095 (Emerging Microbes & Infections, 2014).

Molecular target: MDk/W452(H5N8) NA (Influenza A virus, UniProt A0A088CBR8)
Assay type: biochemical

## CC(=O)N[C@H]1[C@H]([C@H](O)[C@H](O)CO)OC(C(=O)O)=C[C@@H]1N=C(N)N [Zanamivir, zanamivir]
  Sensitivity of virus to NA inhibitor (assessment of the IC50): sensitive

## CCC(CC)[C@H](NC(C)=O)[C@@H]1[C@H](O)[C@@H](C(=O)O)C[C@H]1N=C(N)N [Peramivir, peramivir]
  Sensitivity of virus to NA inhibitor (assessment of the IC50): sensitive
